In article PMC3448668, “Insulin-Like Growth Factor-I E-Peptide Activity Is Dependent on the IGF-I Receptor” (PLoS ONE, 2012):

Legend:
Assay type in all cases: cell-based, mouse
C2C12 cells [1] = assay: BrdU cell proliferation assay (plate and slide); details: for Effect of inhibitor on IGF-I induced proliferation: C2C12 BrdU plate assay, IGF-I 10 nM, PD 50 µM, NVP 100 nM
Procedure: Proliferation was measured using a 5-bromo-2P-deoxyuridine (BrdU) plate and slide assays (Roche, Indianapolis, IN). For the plate assay, 5×10^3 C2C12 cells were seeded in 96-well plates. Cells were starved for 6 hours, and treated with synthetic E-peptides or recombinant IGF-I overnight. BrdU was added for incorporation for 2 hours before cell lysis and BrdU staining. For MAPK inhibition, a MEK inhibitor was added to the media (PD 098059, Sigma, 50 µM). For IGF-IR inhibition, 100 nM NVPAEW541 was added to the media. The slide assay was done as above, except with 2×10^4 C2C12 cells in 24-well plates on glass cover slips. Cells were stained with an antibody to BrdU and with DAPI (VectorLabs, Burlingame, CA) to visualize nuclei. Images were acquired using a Leica DMR epifluorescence microscope using OpenLab imaging software (Improvision, PerkinElmer, Waltham, MA).

C2C12 cells [2] = assay: Transwell cell migration assay; details: C2C12 trans-well, 5 hours, PD 50 µM, NVP 100 nM; for Effect of inhibitor on EB induced migration: EB 100 nM
Procedure: E-peptide effects on cell migration were tested using a 24-well Transwell (8.0 µm pore size) plate assay (Corning Inc., Lowell, MA). C2C12 cells (2×10^4) were seeded in the upper chambers in serum-free media, and synthetic E-peptides in serum-free media were placed in the bottom chambers. Cells were allowed to migrate for 5 hours. Non-migrated cells remaining in the upper chamber were removed from the transwell membranes with Q-tips and migrated cells were fixed with 4% formaldehyde and stained with DAPI. The transwell membranes were mounted onto slides, and imaged at 10× using above-mentioned microscopy and analysis software. For MAPK signaling or IGF-IR inhibition, PD (50 µM) or NVP (100 nM) was added to both chambers at the start of the experiment.

[3] = test system: ERK1/2 phosphorylation (MAPK signaling) in C2C12 cells; assay: ERK1/2 phosphorylation immunoblot after synthetic E-peptide treatment
Procedure: (§1) C2C12 (ATCC, Manassas, VA) cells were maintained in growth media (DMEM containing, 10% fetal bovine serum, and gentamicin). For signaling experiments, 2×10^4 cells were seeded in 6-well plates in growth media and allowed to attach and grow overnight. The next day, cells were starved overnight in growth media without serum. On the third day, cells were treated with synthetic E-peptides and/or recombinant human IGF-I (Gemini Bio-Products West Sacramento, CA) for the time periods indicated in figures, and the cells were processed for immunoblotting as described below. For IGF-IR inhibition, 100 nM NVPAEW541 [47] diluted in DMSO or DMSO only was added to starved cells 90 minutes before and during treatment with synthetic peptides.
(§2) Signaling pathway activation was determined by immunoblotting.

[4] = test system: Akt phosphorylation in C2C12 cells; assay: Akt phosphorylation immunoblot; details: C2C12, 20 min; EA 1 µM, EB 10 nM, IGF-I 10 nM
Procedure: as §1, §2

Row | Molecule | Effect of inhibitor on IGF-I induced proliferation (C2C12 cells [1]) | Effect of inhibitor on EB induced migration (C2C12 cells [2]) | Effect of inhibitor on cell migration in the absence of E-peptides (C2C12 cells [2]) | Effect of IGF-IR inhibitor on ERK1/2 phosphorylation in EA, EB and IGF-I treated cells ([3]; C2C12, NVP 100 nM 90 min before and during 20 min stimulation, EA 1 µM, EB 10 nM, IGF-I 10 nM, vs DMSO, N = 3) | Effect of IGF-IR inhibitor on ERK1/2 phosphorylation in NoTx cells ([3]; C2C12, NVP 100 nM vs DMSO, no stimulation) | Proliferation by BrdU positivity on slides (in words) (C2C12 cells [1]; C2C12 on cover slips, EA and Scr 100 nM, EB and IGF 10 nM, N = 5 slides) | P-ERK1/2 response (in words), without inhibitor ([3]; C2C12, 20 min, EA 1 µM, EB 10 nM, IGF-I 10 nM, DMSO) | P-Akt response (in words) [4]
1 | COc1cccc(-c2cc(=O)c3ccccc3o2)c1N [PD, PD 098059] | significantly decreased IGF-I induced proliferation | decrease in EB migration that did not reach significance | not affected | – | – | – | – | –
2 | Nc1ncnc2c1c(-c1cccc(OCc3ccccc3)c1)cn2[C@H]1C[C@@H](CN2CCC2)C1 [NVP, NVPAEW541] | significantly decreased IGF-I induced proliferation | significantly decreased EB induced migration | not affected | significantly reduced the ERK1/2 phosphorylation | no change in ERK1/2 phosphorylation | – | – | –
3 | IGF-I: recombinant human IGF-I (Gemini Bio-Products), positive control | – | – | – | – | – | increased C2C12 proliferation | increase in both P-Akt and P-ERK1/2 | increase in both P-Akt and P-ERK1/2
